{
  "source": "patent US20200163984A1",
  "about": "“USE OF ISOVALERYL SPIRAMYCIN I, II AND/OR III IN MANUFACTURING MEDICAMENT FOR TREATING AND/OR PREVENTING TUMOR, AND MEDICAMENT” (SHENYANG FUYANG PHARMACEUTICAL TECHNOLOGY CO., LTD., priority 2017, published 2020)",
  "key": {"[1]": {"system": "transplanted tumor of HL60 cells", "assay": "HL-60 transplanted tumor in nude mice", "conditions": "dose 30 mg/kg", "description": "(§1) HL-60 cells in a logarithmic growth phase were taken and subjected to a trypan blue exclusion experiment showing that the cell viability was more than 95%, then the cells were subjected to trypsinization, centrifugation, and supernatant removal. Then cell concentration was adjusted to 1×10^7/ml with matrigel, then each nude mouse was inoculated subcutaneously with 0.2 ml of cells at its right armpit and recorded as the first day of inoculation. When the tumor grows to be greater than or equal to 100 mm^3, the mice were randomly divided into 11 groups with 6 mice in each group: isovaleryl spiramycin I groups with doses of 25, 50 and 100 mg/kg, isovaleryl spiramycin II groups with doses of 25, 50 and 100 mg/kg, and isovaleryl spiramycin III groups with doses of 25, 50 and 100 mg/kg. Each group was continuously administered intragastrically for 30 days with a dose of 20 ml/kg. The mice were sacrificed the next day after drug withdrawal and the indicators were tested. The long diameter and short diameter of the tumor, and the weight of each mouse were recorded every 3 days from drug administration to nude mouse sacrifice.\n(§2) The body weight of the nude mice and the long diameter (a) and short diameter (b) of the transplanted tumor were measured every 3 days, and the tumor volume (v), relative tumor volume (RTV) and relative tumor proliferation rate (T/C) are calculated respectively according to the following formulas, wherein V=a×b^2/2; RTV=V/V0 (V0 is the tumor volume before administration, V is the tumor volume before sacrifice), and T/C (%)=treatment group RTV/model control group RTV×100%.\n(§3) Each mouse was weighed and sacrificed. After the tumor was completely stripped off from the body of the mouse, the non-tumor tissues such as blood stains and fat were removed to weigh the tumor and calculate the tumor growth inhibition rate. The average tumor weight of each group of mice is used as an indicator of efficacy. Tumor growth inhibition rate (%)=(1−the average tumor weight of the treatment group/the average tumor weight of the model group)×100%."}, "[2]": {"system": "transplanted tumor of human non-small cell lung cancer cell A549", "assay": "A549 transplanted tumor in nude mice", "conditions": "A549 nude mice, 30 mg/kg", "description": "as §1, with “A549 cells in” for “HL-60 cells in”, “each group: a model group, a cyclophosphamide group, isovaleryl spiramycin” for “each group: isovaleryl spiramycin”, “and the body weight of” for “and the weight of”\nas §2, §3"}, "[3]": {"system": "transplanted tumor of human thyroid cancer cell TPC-1", "assay": "TPC-1 transplanted tumor in nude mice", "conditions": "dose 30 mg/kg", "description": "as §1, with “Then cell” for “HL-60 cells in a logarithmic growth phase were taken and subjected to a trypan blue exclusion experiment showing that the cell viability was more than 95%, then the cells were subjected to trypsinization, centrifugation, and supernatant removal. Then cell”, “and the body weight of” for “and the weight of”\nas §2, §3"}},
  "data": [
    {"smiles": "O=P1(N(CCCl)CCCl)NCCCO1", "note": "(stereo not drawn) [Cyclophosphamide, cyclophosphamide, reference compound]", "values": [
      {"measurement": "Inhibition Rate (%)", "setting": "[1]", "result": 70.30, "unit": "%"},
      {"measurement": "Relative Tumor Proliferation Rate (T/C)", "setting": "[1]", "result": 24.69, "unit": "%"},
      {"measurement": "Relative Tumor Volume (RTV)", "setting": "[1]", "result": "2.78 ± 1.89"},
      {"measurement": "Tumor Weight", "setting": "[1]", "result": "0.67 ± 0.30", "unit": "g"},
      {"measurement": "Body Weight (g) (d1)", "setting": "[1]; d 1", "result": "20.65 ± 1.47", "unit": "g"},
      {"measurement": "Tumor Volume (mm3) (d 1)", "setting": "[1]; d 1", "result": "180.63 ± 29.97", "unit": "mm3"},
      {"measurement": "Body Weight (g) (d30)", "setting": "[1]; d 30", "result": "18.47 ± 0.91", "unit": "g"},
      {"measurement": "Tumor Volume (mm3) (d30)", "setting": "[1]; d 30", "result": "466.98 ± 255.88", "unit": "mm3"},
      {"measurement": "Inhibition Rate (%)", "setting": "[2]", "result": 70.59, "unit": "%"},
      {"measurement": "Relative Tumor Proliferation Rate (T/C)", "setting": "[2]", "result": 39.73, "unit": "%"},
      {"measurement": "Relative Tumor Volume (RTV)", "setting": "[2]", "result": "9.47 ± 2.91"},
      {"measurement": "Tumor Weight", "setting": "[2]", "result": "0.70 ± 0.39", "unit": "g"},
      {"measurement": "Body Weight (g) (d1)", "setting": "[2]; d1", "result": "21.89 ± 1.22", "unit": "g"},
      {"measurement": "Tumor Volume (mm3) (d 1)", "setting": "[2]; d1", "result": "115.15 ± 10.00", "unit": "mm3"},
      {"measurement": "Body Weight (g) (d30)", "setting": "[2]; d30", "result": "19.27 ± 1.49", "unit": "g"},
      {"measurement": "Tumor Volume (mm3) (d30)", "setting": "[2]; d30", "result": "733.89 ± 352.79", "unit": "mm3"},
      {"measurement": "Inhibition Rate (%)", "setting": "[3]", "result": 71.29, "unit": "%"},
      {"measurement": "Relative Tumor Proliferation Rate (T/C)", "setting": "[3]", "result": 37.40, "unit": "%"},
      {"measurement": "Relative Tumor Volume (RTV)", "setting": "[3]", "result": "6.16 ± 2.29"},
      {"measurement": "Tumor Weight", "setting": "[3]", "result": "0.69 ± 0.37", "unit": "g"},
      {"measurement": "Body Weight (g) (d1)", "setting": "[3]; d 1", "result": "21.56 ± 1.54", "unit": "g"},
      {"measurement": "Tumor Volume (mm3) (d 1)", "setting": "[3]; d 1", "result": "117.10 ± 4.88", "unit": "mm3"},
      {"measurement": "Body Weight (g) (d30)", "setting": "[3]; d 30", "result": "19.16 ± 1.75", "unit": "g"},
      {"measurement": "Tumor Volume (mm3) (d30)", "setting": "[3]; d 30", "result": "724.64 ± 285.14", "unit": "mm3"}
    ]}
  ]
}
